Measurements taken from patent US10774092B2 (SALK INSTITUTE FOR BIOLOGICAL STUDIES, priority 2014, dated 2020).

The compounds below were run on endogenous ULK1 activity (assay: mobility shift of endogenous Beclin1 and Atg13 (endogenous ULK1 activity) in MEFs). Conditions: WT MEFs, 10 μM co-treatment, 1 hr.
Type: cell-based, mouse
Experimental: FIG. 7D: WT or Ulk1/Ulk2 double knockout mouse embryonic fibroblasts (MEFs) were treated with fresh media (Dulbecco's modified Eagle medium [DMEM] containing 10% FBS) containing 1-μM INK128, 1-μM AZD8055, or DMSO or with starvation media (EBSS) in the presence or absence of 10 μM compound 14. Cellular lysates were isolated after 1 hr of treatment and immunoblotted with the indicated antibodies. Asterisk denotes non-specific band.
We next examined whether compound 14 inhibits endogenous ULK1 activity. To activate endogenous ULK1, we treated MEFs with either amino acid starvation media (Earle's balanced salt solution [EBSS]) or the mTOR ATP-competitive inhibitors INK128 or AZD8055. In WT MEFs, we observed a mobility shift in endogenous Beclin1 and Atg13 in response to EBSS starvation media or the mTOR catalytic inhibitors, which was abolished in Ulk1/2-deficient MEFs (FIG. 7D). […] In certain embodiments, the mobility shifts observed in endogenous Beclin1 and Atg13 induced by mTOR inhibitors and starvation media reflect phosphorylation of endogenous Beclin1/Atg13 by endogenous ULK1/2 as they only occur in WT but not Ulk1/2-deficient MEFs.
CNC(=O)c1ccccc1Nc1nc(Nc2cc(OC)c(OC)c(OC)c2)ncc1Br [compound 14, 2-(5-bromo-2-(3,4,5-trimethoxyphenylamino)pyrimidin-4-ylamino)-N-methylbenzamide] was tested, and the “EBSS and mTOR-inhibitor induced mobility shift in Beclin1 and Atg13” value was “inhibited”.

The compounds below were run on A549 lung cancer cells (assay: Cyto-ID autophagy dye detection of autophagic vacuoles). Conditions: 5-μM 6965 with AZD8055.
Type: cell-based
Experimental: FIG. 9E is an immunoflourescence imaging of A549 cells treated in the presence or absence of 5 μM compound 14 for 2 hr followed by 4 μM of the mTOR catalytic inhibitor AZD8055 for 24 hr. Autophagic vacuoles were detected using the Cyto-ID autophagy detection kit and are visualized in green, while cell nuclei were counterstained by DAPI and are visualized in blue.
(§1) To test the ability of compound 14 to block autophagy and cell survival, initial studies were performed in A549 lung cancer cells, which are highly sensitive to mTOR inhibition. […] Next, we genetically assessed the requirement for ULK1 versus other kinases inhibited by compound 14 to induce autophagy after pharmacological mTOR inhibition. A robust high-throughput microscopy method for quantifying GFP-LC3 puncta was established using a PC3 prostate-cancer cell line stably expressing a GFP-LC3 construct. Using this assay, we performed a focused RNAi analysis of the top 20 kinases identified in the DiscovRx screen as best binding to compound 14. […] Strikingly, of the 18 kinases tested, only one kinase siRNA, ULK1, nearly fully abolished the LC3 puncta induced by the mTOR inhibitors (FIG. 9D).
In the case of CNC(=O)c1ccccc1Nc1nc(Nc2cc(OC)c(OC)c(OC)c2)ncc1Br [compound 14, 2-(5-bromo-2-(3,4,5-trimethoxyphenylamino)pyrimidin-4-ylamino)-N-methylbenzamide], the “effect on AZD8055-induced autophagy (Cyto-ID dye accumulation)” value is reported as “strongly suppressed”.

Same assay, conditions: AZD8055 alone
For COc1ccc(-c2ccc3c(N4CCOC[C@@H]4C)nc(N4CCOC[C@@H]4C)nc3n2)cc1CO [AZD8055, (5-(2,4-bis((S)-3-methylmorpholino)pyrido[2,3-d]pyrimidin-7-yl)-2-methoxyphenyl)methanol, reference compound], the “autophagy induction (Cyto-ID dye accumulation)” value was “induced robust autophagy”.

Each compound was assayed against ULK1 (Homo sapiens, UniProt O75385) (assay: ULK1 inhibition assay (Table 1)). Conditions: * = tested as a mixture of regioisomers.
Chain of ULK1 (O75385 whole entry, looked up): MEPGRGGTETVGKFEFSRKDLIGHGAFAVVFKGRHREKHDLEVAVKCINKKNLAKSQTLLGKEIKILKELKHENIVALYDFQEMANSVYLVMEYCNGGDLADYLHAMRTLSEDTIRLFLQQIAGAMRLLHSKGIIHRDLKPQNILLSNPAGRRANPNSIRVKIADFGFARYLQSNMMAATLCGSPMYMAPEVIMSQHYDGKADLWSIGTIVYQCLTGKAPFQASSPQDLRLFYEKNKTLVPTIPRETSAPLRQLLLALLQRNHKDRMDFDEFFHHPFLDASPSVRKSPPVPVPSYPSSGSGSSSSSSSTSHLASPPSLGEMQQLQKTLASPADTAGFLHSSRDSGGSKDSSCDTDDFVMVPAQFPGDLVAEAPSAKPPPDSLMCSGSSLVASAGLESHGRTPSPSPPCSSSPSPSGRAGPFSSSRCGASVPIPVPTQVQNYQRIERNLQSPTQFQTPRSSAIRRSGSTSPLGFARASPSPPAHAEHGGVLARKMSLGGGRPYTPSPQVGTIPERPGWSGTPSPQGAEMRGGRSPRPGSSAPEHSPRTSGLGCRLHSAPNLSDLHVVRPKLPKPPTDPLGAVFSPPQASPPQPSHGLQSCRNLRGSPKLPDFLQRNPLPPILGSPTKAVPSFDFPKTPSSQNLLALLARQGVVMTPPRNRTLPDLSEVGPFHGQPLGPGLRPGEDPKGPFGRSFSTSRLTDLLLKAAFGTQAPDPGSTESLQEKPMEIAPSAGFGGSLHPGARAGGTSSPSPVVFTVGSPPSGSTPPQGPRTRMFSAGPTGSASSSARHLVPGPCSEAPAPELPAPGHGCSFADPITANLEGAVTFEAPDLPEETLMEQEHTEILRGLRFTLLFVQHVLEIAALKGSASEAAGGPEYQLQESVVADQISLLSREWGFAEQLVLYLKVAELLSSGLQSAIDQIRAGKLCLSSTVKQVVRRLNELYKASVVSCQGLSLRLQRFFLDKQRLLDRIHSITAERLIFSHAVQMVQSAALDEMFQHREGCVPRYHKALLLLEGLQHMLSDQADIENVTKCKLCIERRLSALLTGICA
Type: biochemical
With O=C1CCc2cc(Nc3ncc(C(F)(F)F)c(NCCO)n3)ccc2N1 [Example 197, 6-((4-((2-hydroxyethyl)amino)-5-(trifluoromethyl)pyrimidin-2-yl)amino)-3,4-dihydroquinolin-2(1H)-one] the IC50 was < 200 nM. For CNC(=O)c1ccccc1Nc1nc(Nc2cnc3[nH]ccc3c2)ncc1C(F)(F)F [Example 201, 2-((2-((1H-pyrrolo[2,3-b]pyridin-5-yl)amino)-5-(trifluoromethyl)pyrimidin-4-yl)amino)-N-methylbenzamide], the IC50 was < 200 nM. For O=C(Nc1ccc(Nc2ncc(C(F)(F)F)c(NC3CC3)n2)cc1)C1CC1 [Example 312, N-(4-((4-(cyclopropylamino)-5-(trifluoromethyl)pyrimidin-2-yl)amino)phenyl)cyclopropanecarboxamide], the IC50 was < 200 nM. With CNC(=O)c1ccccc1Oc1ccnc(Nc2cc(OC)c(OC)c(OC)c2)n1 [Example 239, N-methyl-2-((2-((3,4,5-trimethoxyphenyl)amino)pyrimidin-4-yl)oxy)benzamide] the IC50 was > 2000 nM. For O=C1CCc2cc(Nc3ncnc(NC4CC4)n3)ccc2N1 [Example 225, 6-((4-(cyclopropylamino)-1,3,5-triazin-2-yl)amino)-3,4-dihydroquinolin-2(1H)-one], the IC50 was > 2000 nM. For CCONc1nc(Nc2ccc3c(c2)CCC(=O)N3)ncc1C(F)(F)F [Example 219, 6-((4-(ethoxyamino)-5-(trifluoromethyl)pyrimidin-2-yl)amino)-3,4-dihydroquinolin-2(1H)-one], the IC50 was > 2000 nM. With O=C1CCc2cc(Nc3ncc(C(F)(F)F)c(N4CC(F)(F)C4)n3)ccc2N1 [Example 215, 6-((4-(3,3-difluoroazetidin-1-yl)-5-(trifluoromethyl)pyrimidin-2-yl)amino)-3,4-dihydroquinolin-2(1H)-one] the IC50 was < 200 nM. For CNS(=O)(=O)c1ccccc1Nc1nc(Nc2cc(OC)c(OC)c(OC)c2)ncc1Br [Example 237, 2-((5-bromo-2-((3,4,5-trimethoxyphenyl)amino)pyrimidin-4-yl)amino)-N-methylbenzenesulfonamide], the IC50 was 200 to 2000 nM. In the case of O=C1CCc2cc(Nc3ncc(C(F)(F)F)c(Nc4cc(C5CCC5)[nH]n4)n3)ccc2N1 [Example 271, 6-((4-((5-cyclobutyl-1H-pyrazol-3-yl)amino)-5-(trifluoromethyl)pyrimidin-2-yl)amino)-3,4-dihydroquinolin-2(1H)-one], the IC50 is reported as < 200 nM. FC(F)(F)c1cnc(Nc2cnc3[nH]ccc3c2)nc1NC1COC1 [Example 194, N4-(oxetan-3-yl)-N2-(1H-pyrrolo[2,3-b]pyridin-5-yl)-5-(trifluoromethyl)pyrimidine-2,4-diamine] was tested, and the IC50 was < 200 nM. With COc1cc(Nc2ncc(Br)c(Nc3ccccc3CO)n2)cc(OC)c1OC [Example 303, (2-((5-bromo-2-((3,4,5-trimethoxyphenyl)amino)pyrimidin-4-yl)amino)phenyl)methanol] the IC50 was < 200 nM. With Oc1ccc(CCNc2ncc(C(F)(F)F)c(NC3CC3)n2)cc1 [Example 246, 4-(2-((4-(cyclopropylamino)-5-(trifluoromethyl)pyrimidin-2-yl)amino)ethyl)phenol] the IC50 was 200 to 2000 nM. With COc1cc(Nc2ncc(Br)c(Oc3ccccc3C(F)(F)F)n2)cc(OC)c1OC [Example 299, 5-bromo-4-(2-(trifluoromethyl)phenoxy)-N-(3,4,5-trimethoxyphenyl)pyrimidin-2-amine] the IC50 was < 200 nM. For CC1(Nc2nc(Nc3ccc4c(c3)CCC(=O)N4)ncc2C(F)(F)F)COC1 [Example 220a, 6-((4-((3-methyloxetan-3-yl)amino)-5-(trifluoromethyl)pyrimidin-2-yl)amino)-3,4-dihydroquinolin-2(1H)-one], the IC50 was > 2000 nM. In the case of O=C(C1CC1)N(C(=O)C1CC1)c1ccc(Nc2ncc(C(F)(F)F)c(NC3CC3)n2)cc1 [Example 311, N-(cyclopropanecarbonyl)-N-(4-((4-(cyclopropylamino)-5-(trifluoromethyl)pyrimidin-2-yl)amino)phenyl)cyclopropanecarboxamide], the IC50 is reported as < 200 nM. FC(F)(F)c1cnc(Nc2ccc3nc[nH]c3c2)nc1Nc1cc(C2CCC2)[nH]n1 [Example 297, N2-(1H-benzo[d]imidazol-6-yl)-N4-(5-cyclobutyl-1H-pyrazol-3-yl)-5-(trifluoromethyl)pyrimidine-2,4-diamine] was tested, and the IC50 was < 200 nM. With Nc1ccc(Nc2ncc(C(F)(F)F)c(NC3CC3)n2)cc1 [Example 304a, N2-(4-aminophenyl)-N4-cyclopropyl-5-(trifluoromethyl)pyrimidine-2,4-diamine] the IC50 was < 200 nM.

What follows are compounds tested on PC3 prostate-cancer cell line stably expressing GFP-LC3 (assay: GFP-LC3 puncta high-throughput microscopy). Conditions: control siRNA cells, 1 μM mTOR catalytic inhibitor for 4 hr.
Type: cell-based, human
Experimental: At 48 hr after RNAi transfection, the cells were treated with 1 μM of the catalytic mTOR inhibitors AZD8055 or INK128 for 4 hr and assessed for the presence of GFP-LC3 puncta. The average number of GFPLC3 puncta and SD for each siRNA and drug treatment are shown. SRC, c-Src; c-Src kinase, CSK.
as §1
For COc1ccc(-c2ccc3c(N4CCOC[C@@H]4C)nc(N4CCOC[C@@H]4C)nc3n2)cc1CO [AZD8055, (5-(2,4-bis((S)-3-methylmorpholino)pyrido[2,3-d]pyrimidin-7-yl)-2-methoxyphenyl)methanol, reference compound], the “induction in GFP-LC3 puncta formation” value was 2 fold. For CC(C)n1nc(-c2ccc3oc(N)nc3c2)c2c(N)ncnc21 [INK128, 3-(2-amino-5-benzoxazolyl)-1-(1-methylethyl)-1H-pyrazolo[3,4-d]pyrimidin-4-amine], the “induction in GFP-LC3 puncta formation” value was 2 fold.
